From patent US12036312B2, “Non-aqueous topical compositions comprising a halogenated salicylanilide” (priority 2016, dated 2024)
Values after ≈ are worked out from the molar mass of the structure shown. Values joined by “and” are separate entries in the source; they are usually repeats but may differ in a detail not shown here. Identical values can stand only once. Blank lines part the entries; values can stand above or below the compound they belong to.

How the values were obtained:
S. aureus [1] = assay: Minimum inhibitory concentration (MIC) assay, Example 1, S. aureus strains; format: cell-based; conditions: Staphylococcus aureus, MRSA, read-out: Mic100 S. aureus
Description: The methicillin-resistant S. aureus (MRSA) 01 strain was used as the primary test microorganism as a representative bacteria commonly found in skin infections. This strain is a community-acquired MRSA clinical isolate of USA 300 type, from a skin abscess.
(§1) Twenty-one other MRSA and methicillin-sensitive S. aureus strains, and 4 Streptococcus pyogenes strains, were also included in the study (Table 2). These covered fusidic acid- and mupirocin-resistant strains, these two types of resistance being of clinical relevance.
(§2) Strains were conserved in Luria Bertani (LB) Broth (S. aureus) or Brain Heart Infusion (BHI) (S. pyogenes) supplemented with glycerol 15% (v/v) at −80° C., and reactivated by isolation on LB (S. aureus) or BHI (S. pyogenes) agar plates. Strains were cultivated in Mueller Hinton (MH) Broth-cation adjusted (S. aureus) supplemented with lysed horse blood 2.5% (v/v) (S. pyogenes). All strains were cultivated at 37° C., aerobically for S. aureus strains.
(§3) Bacterial cultures were stopped in their exponential growth phase and plates were inoculated with the approximate concentration of 10^3 cells per well. Plates were incubated at 37° C. for 18 hours (S. aureus) or 24 hours (S. pyogenes). Optical density at a wavelength of 600 nm was measured at the end of the incubation time. […] Experiments were performed at least as triplicate biological replicates with all strains.

S. pyogenes = assay: Minimum inhibitory concentration (MIC) assay, Example 1, S. pyogenes strains; format: cell-based; conditions: Streptococcus pyogenes, read-out: Mic100 S. pyogenes
Protocol: as §1, §2, §3

[2] = test system: MRSA 01, MRSA 15 (fusidic acid-resistant), MRSA 16 (mupirocin-resistant); assay: Mutational frequency evaluation (spontaneous single-step mutations), Example 1; format: cell-based, Staphylococcus aureus; conditions: at MIC×1 (Example 1)
S. aureus [3] = assay: MIC assay according to CLSI criteria, Example 2, S. aureus strains; format: cell-based, Staphylococcus aureus; conditions: Staphylococcus aureus, read-out: MIC
Description: Chosen for its relevance regarding bacterial skin infections, the methicillin-resistant S. aureus (MRSA) 01 strain was used as the primary test microorganism. This strain is a community-acquired MRSA clinical isolate of USA 300 type, from a skin abscess.
Two-hundred-four other MRSA and methicillin-sensitive S. aureus strains, and 4 Streptococcus pyogenes strains, were also included in the study. These covered fusidic acid- and mupirocin-resistant strains, these two types of resistance being of clinical relevance.
Strains were conserved in Luria Bertani (LB) Broth (S. aureus) or Brain Heart Infusion (BHI) (S. pyogenes) supplemented with glycerol 15% (v/v) at −80° C., and reactivated by isolation on LB (S. aureus) or BHI (S. pyogenes) agar plates. Strains were cultivated in Mueller Hinton (MH) Broth-cation adjusted (S. aureus) or BHI (S. pyogenes). All strains were cultivated aerobically (microaerobically for S. pyogenes strains) at 37° C.
Bacterial cultures were stopped in their exponential growth phase and plates were inoculated with the approximate concentration of 5×10^5 cells per well. Plates were incubated at 37° C. for 18 hours (S. aureus) or 24 hours (S. pyogenes). Optical density at a wavelength of 600 nm was measured at the end of the incubation time.

[4] = published literature values; cited from earlier work

SMILES: O=C(Nc1ccc(Oc2ccc(Cl)cc2)c(Cl)c1)c1cc(I)cc(I)c1O [Rafoxanide, rafoxanide]
MIC (S. aureus [1]): 0.8 µg/mL and 1.25 µM
MIC (S. pyogenes): 6.4 µg/mL and 10 µM
mutational frequency [2]: 5×10^−9

SMILES: Cc1cc(C(C#N)c2ccc(Cl)cc2)c(Cl)cc1NC(=O)c1cc(I)cc(I)c1O (stereo not drawn) [Closantel, closantel]
mutational frequency [2]: 2×10^−8

MIC (S. aureus [3]; MRSA, strain MRSA 01): 0.25 µg/mL (≈ 0.499 µM)
MIC (S. aureus [3]; MRSA, strain MRSA 02): 0.25 µg/mL (≈ 0.499 µM)
MIC (S. aureus [3]; MRSA, strain MRSA 03): 0.25 µg/mL (≈ 0.499 µM)
MIC (S. aureus [3]; MRSA, strain MRSA 04): 0.25 µg/mL (≈ 0.499 µM)
MIC (S. aureus [3]; MRSA, strain MRSA 05): 0.125 µg/mL (≈ 0.25 µM)
MIC (S. aureus [3]; MRSA, strain MRSA 06): 0.25 µg/mL (≈ 0.499 µM)
MIC (S. aureus [3]; MRSA, strain MRSA 07): 0.25 µg/mL (≈ 0.499 µM)
MIC (S. aureus [3]; MRSA, strain MRSA 09): 0.25 µg/mL (≈ 0.499 µM)
MIC (S. aureus [3]; MRSA, strain MRSA 10): 0.25 µg/mL (≈ 0.499 µM)
MIC (S. aureus [3]; MRSA, strain MRSA 11): 0.5 µg/mL (≈ 0.999 µM)
MIC (S. aureus [3]; MRSA, strain MRSA 12): 0.125 µg/mL (≈ 0.25 µM)
MIC (S. aureus [3]; MRSA, strain MRSA 13): 0.25 µg/mL (≈ 0.499 µM)
MIC (S. aureus [3]; MRSA, strain MRSA 14): 0.125 µg/mL (≈ 0.25 µM)
MIC (S. aureus [3]; MRSA, strain MRSA 15): 0.25 µg/mL (≈ 0.499 µM)
MIC (S. aureus [3]; MRSA, strain MRSA 18): 0.125 µg/mL (≈ 0.25 µM)
MIC (S. aureus [3]; MRSA, strain MRSA 19): 0.25 µg/mL (≈ 0.499 µM)
MIC (S. aureus [3]; MRSA, strain MRSA 20): 0.25 µg/mL (≈ 0.499 µM)
MIC (S. aureus [3]; MRSA, strain MRSA 22): 0.25 µg/mL (≈ 0.499 µM)
MIC (S. aureus [3]; MRSA, strain MRSA 23): 0.25 µg/mL (≈ 0.499 µM)
MIC (S. aureus [3]; MRSA, strain MRSA 24): 0.25 µg/mL (≈ 0.499 µM)
MIC (S. aureus [3]; MRSA, strain MRSA 25): 0.25 µg/mL (≈ 0.499 µM)
MIC (S. aureus [3]; MRSA, strain MRSA 26): 0.5 µg/mL (≈ 0.999 µM)
MIC (S. aureus [3]; MRSA, strain MRSA 27): 0.25 µg/mL (≈ 0.499 µM)
MIC (S. aureus [3]; MRSA, strain MRSA 28): 0.5 µg/mL (≈ 0.999 µM)
MIC (S. aureus [3]; MRSA, strain MRSA 29): 0.25 µg/mL (≈ 0.499 µM)
MIC (S. aureus [3]; MRSA, strain MRSA 31): 0.25 µg/mL (≈ 0.499 µM)
MIC (S. aureus [3]; MRSA, strain MRSA 32): 0.25 µg/mL (≈ 0.499 µM)
MIC (S. aureus [3]; MRSA, strain MRSA 33): 0.25 µg/mL (≈ 0.499 µM)
MIC (S. aureus [3]; MRSA, strain MRSA 34): 0.25 µg/mL (≈ 0.499 µM)
MIC (S. aureus [3]; MRSA, strain MRSA 35): 0.5 µg/mL (≈ 0.999 µM)
MIC (S. aureus [3]; MRSA, strain MRSA 36): 0.25 µg/mL (≈ 0.499 µM)
MIC (S. aureus [3]; MRSA, strain MRSA 37): 0.25 µg/mL (≈ 0.499 µM)
MIC (S. aureus [3]; MRSA, strain MRSA 39): 0.25 µg/mL (≈ 0.499 µM)
MIC (S. aureus [3]; MRSA, strain MRSA 40): 0.25 µg/mL (≈ 0.499 µM)
MIC (S. aureus [3]; MRSA, strain MRSA 75): 0.5 µg/mL (≈ 0.999 µM)
MIC (S. aureus [3]; MRSA, strain MRSA 85): 0.25 µg/mL (≈ 0.499 µM)
MIC (S. aureus [3]; MRSA, strain MRSA 86): 0.25 µg/mL (≈ 0.499 µM)
MIC (S. aureus [3]; MRSA, strain MRSA 87): 0.25 µg/mL (≈ 0.499 µM)
MIC (S. aureus [3]; MRSA, strain MRSA 88): 0.25 µg/mL (≈ 0.499 µM)
MIC (S. aureus [3]; MRSA, strain MRSA 89): 0.25 µg/mL (≈ 0.499 µM)
MIC (S. aureus [3]; MRSA, strain MRSA 90): 0.25 µg/mL (≈ 0.499 µM)
MIC (S. aureus [3]; MRSA, strain MRSA 91): 0.25 µg/mL (≈ 0.499 µM)
MIC (S. aureus [3]; MRSA, strain MRSA 92): 0.25 µg/mL (≈ 0.499 µM)
MIC (S. aureus [3]; MRSA, strain MRSA 93): 0.25 µg/mL (≈ 0.499 µM)
MIC (S. aureus [3]; MRSA, strain MRSA 94): 0.25 µg/mL (≈ 0.499 µM)
MIC (S. aureus [3]; MRSA, strain MRSA 95): 0.25 µg/mL (≈ 0.499 µM)
MIC (S. aureus [3]; MRSA, strain MRSA 96): 0.125 µg/mL (≈ 0.25 µM)
MIC (S. aureus [3]; MRSA, strain MRSA 97): 0.25 µg/mL (≈ 0.499 µM)
MIC (S. aureus [3]; MRSA, strain MRSA 98): 0.5 µg/mL (≈ 0.999 µM)
MIC (S. aureus [3]; MRSA, strain MRSA 99): 0.5 µg/mL (≈ 0.999 µM)
MIC (S. aureus [3]; MRSA, strain MRSA 100): 0.5 µg/mL (≈ 0.999 µM)
MIC (S. aureus [3]; MRSA, strain MRSA 101): 0.25 µg/mL (≈ 0.499 µM)
MIC (S. aureus [3]; MRSA, strain MRSA 102): 0.25 µg/mL (≈ 0.499 µM)
MIC (S. aureus [3]; MRSA, strain MRSA 103): 0.25 µg/mL (≈ 0.499 µM)
MIC (S. aureus [3]; MRSA, strain MRSA 104): 0.25 µg/mL (≈ 0.499 µM)
MIC (S. aureus [3]; MRSA, strain MRSA 105): 0.25 µg/mL (≈ 0.499 µM)
MIC (S. aureus [3]; MRSA, strain MRSA 106): 0.25 µg/mL (≈ 0.499 µM)
MIC (S. aureus [3]; MRSA, strain MRSA 107): 0.25 µg/mL (≈ 0.499 µM)
MIC (S. aureus [3]; MRSA, strain MRSA 108): 0.25 µg/mL (≈ 0.499 µM)
MIC (S. aureus [3]; MRSA, strain MRSA 109): 0.25 µg/mL (≈ 0.499 µM)
MIC (S. aureus [3]; MRSA, strain MRSA 110): 0.125 µg/mL (≈ 0.25 µM)
MIC (S. aureus [3]; MRSA, strain MRSA 111): 0.25 µg/mL (≈ 0.499 µM)
MIC (S. aureus [3]; MRSA, strain MRSA 112): 0.25 µg/mL (≈ 0.499 µM)
MIC (S. aureus [3]; MRSA, strain MRSA 113): 0.25 µg/mL (≈ 0.499 µM)
MIC (S. aureus [3]; MSSA, strain MSSA 01): 0.125 µg/mL (≈ 0.25 µM)
MIC (S. aureus [3]; MSSA, strain MSSA 02): 0.125 µg/mL (≈ 0.25 µM)
MIC (S. aureus [3]; NEWMAN, strain Newman): 0.25 µg/mL (≈ 0.499 µM)
SMILES: C/C(=C\C(=O)OCCCCCCCCC(=O)O)C[C@@H]1OC[C@H](C[C@@H]2O[C@H]2[C@@H](C)[C@H](C)O)[C@@H](O)[C@H]1O [Mupirocin, mupirocin]

SMILES: O=C(Nc1cc(Cl)cc(Cl)c1O)c1c(O)c(Cl)cc(Cl)c1Cl [Oxyclozanide, oxyclozanide]
LD50 rats p.o [4]: 980 to 3500 mg/kg
